Columns and labels:
KCNQ3* = KCNQ3* (Homo sapiens, UniProt O43525, A315T); assay: [3H]GABA competition binding to oocytes expressing KCNQ3*; details: 100 μM, 10 μM 3H-GABA
Description: Each group of oocytes was placed in a round-bottomed, 15-ml falcon tube, washed with ND96, and then resuspended in ND96 containing 10 μM γ-[2,3-^3H(N)]-aminobutyric acid (^3H-GABA) (Perkin Elmer, Waltham, Mass.) at 25-40 Ci/mMol specific activity either alone, or with 100 μM 2FPG or 100 μM 3FMSG, for a 30 minute incubation at room temperature. Oocytes were then washed four times in 16° C. ND96, transferred to individual wells in a 96 well plate and lysed in 0.2% SDS in ND96. Each oocyte lysate was transferred to a scintillation vial containing 5 ml Cytoscint scintillation cocktail fluid (MP Biomedicals, Santa Ana, Calif.). Vials were capped, shaken, and then allowed to sit at room temperature for at least 30 min before scintillation counting in a Beckmann Coulter LS6500 liquid scintillation counter.

KCNQ1/KCNE3 = KCNQ1/KCNE3 (Homo sapiens, UniProt P51787); assay: TEVC of KCNQ1/KCNE3 channels; type: cell-based
Excerpt: As previously described (12), we generated cRNA transcripts encoding human KCNA1, KCNE1, KCNE2, KCNE3, KCNQ1, KCNQ2, KCNQ3, KCNQ4 or KCNQ5 by in vitro transcription using the T7 polymerase mMessage mMachine kit (Thermo Fisher Scientific), after vector linearization, from cDNA sub-cloned into plasmids incorporating Xenopus laevis β-globin 5′ and 3′ UTRs flanking the coding region to enhance translation and cRNA stability. We quantified cRNA by spectrophotometry. We generated mutant KCNQ2 and KCNQ3 cDNAs by site-directed mutagenesis with a QuikChange kit (Stratagene, San Diego, Calif.) and prepared the cRNAs as above. We injected defolliculated stage V and VI Xenopus laevis oocytes (Ecocyte Bioscience, Austin, Tex. and Xenoocyte, Dexter, Mich., US) with KCNE and/or KCNQ cRNAs (5-20 ng). […]
We performed TEVC at room temperature using an OC-725C amplifier (Warner Instruments, Hamden, Conn.) and pClamp10 software (Molecular Devices, Sunnyvale, Calif.) 2-5 days after cRNA injection as described in the section above. […] We recorded currents in response to voltage pulses between −120 or −80 mV and +40 mV at 20 mV intervals from a holding potential of −80 mV, to yield current-voltage relationships, current magnitude, and for quantifying activation rate. We analyzed data using Clampfit (Molecular Devices) and Graphpad Prism software (GraphPad, San Diego, Calif., USA); values are stated as mean±SEM. […]

KCNA1 = KCNA1 (Homo sapiens, UniProt Q09470); assay: TEVC of KCNA1 expressed in Xenopus oocytes; type: cell-based
Excerpt: cRNA transcripts encoding human KCNA1, KCNQ1, KCNQ2, KCNQ3, KCNQ4, or KCNQ5 were generated by in vitro transcription using the T7 polymerase message machine kit (Thermo Fisher Scientific), after vector linearization, from cDNA sub-cloned into plasmids incorporating X. laevis β-globin 5′ and 3′ UTRs flanking the coding region to enhance translation and cRNA stability. cRNA was quantified by spectrophotometry. Mutant cDNAs were generated by site-directed mutagenesis using a QuikChange kit according to manufacturer's protocol (Stratagene, San Diego, Calif.) and corresponding cRNAs prepared as above. Defolliculated stage V and VI X. laevis oocytes (Ecocyte Bioscience, Austin, Tex.) were injected with Kv channel a subunit cRNAs (10 ng total per oocyte). […]
TEVC recording was performed at room temperature with an OC-725C amplifier (Warner Instruments, Hamden, Conn.) and pClamp10.2 software (Molecular Devices, Sunnyvale, Calif.) 3-5 days after cRNA injection as described in the section above. […] Currents were recorded in response to pulses between −80 and +40 mV at 20 mV intervals, or a single pulse to +40 mV, from a holding potential of −80 mV, to yield current-voltage relationships, current magnitude, and for quantifying activation rate. […]

Sequence of KCNA1 (Q09470 whole entry): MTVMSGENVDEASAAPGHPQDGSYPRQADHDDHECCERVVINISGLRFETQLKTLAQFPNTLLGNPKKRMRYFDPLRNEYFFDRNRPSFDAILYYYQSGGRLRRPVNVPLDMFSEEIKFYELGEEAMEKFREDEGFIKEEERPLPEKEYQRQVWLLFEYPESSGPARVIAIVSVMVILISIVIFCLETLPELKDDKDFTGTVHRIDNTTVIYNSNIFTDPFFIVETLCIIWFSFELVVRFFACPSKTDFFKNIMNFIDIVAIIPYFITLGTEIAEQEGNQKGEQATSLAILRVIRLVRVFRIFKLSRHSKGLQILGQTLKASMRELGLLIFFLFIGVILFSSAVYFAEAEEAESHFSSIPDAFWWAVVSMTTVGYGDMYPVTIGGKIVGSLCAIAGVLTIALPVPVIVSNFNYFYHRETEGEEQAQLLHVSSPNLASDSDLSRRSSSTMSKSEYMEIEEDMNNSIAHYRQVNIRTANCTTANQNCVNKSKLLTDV

For `CS(=O)(=O)N(CC(=O)O)c1cccc(F)c1` [3FMSG], which “competition with [3H]GABA binding to KCNQ3*” value (KCNQ3*) is on record?
Its value is “able to compete out GABA binding”.

With `CCCCCCCCC/C=C/C=O` [(E)-2-dodecenal] as the molecule, how does the “effect on KCNQ1/KCNE3 (in words)” value (KCNQ1/KCNE3) read?
The value was “activated”.

Which “effect on KCNA1 (in words)” value (KCNA1) does the source give for `CC(=O)c1c(O)c(C)c(O)c(Cc2c(O)c3c(c(C(=O)/C=C/c4ccccc4)c2O)OC(C)(C)C=C3)c1O` [MTX, mallotoxin] here?
The value was “no effect”.
